# Laboratory results taken from patent US11497833B2, “Self-assembling peptides comprising non-Ionic polar amino acids” (3-D Matrix, Ltd., priority 2014, dated 2022).
# Peptide text beside a SMILES is read from it.
# Columns and labels:
# Format in all cases: physicochemical
# [1] = Stability to autoclave sterilization, mass spectrometry before and after autoclave; conditions: 121° C. for 25 min, high pressure saturated steam; mass spec before and after; N- and C-terminus not protected
# Excerpt: Sterilization is a very important step in the manufacturing process for all biomaterials, including the self-assembling peptide solutions.
# [2] = Dissolution in deionized water and visual appearance of peptide solution; conditions: deionized water
# [3] = Congo Red assay of gel formation in PBS buffer (pH 7.4); conditions: 1% Congo Red in PBS buffer pH 7.4
# Experimental: A Congo Red assay was performed to determine gel formation of peptide solutions in a PBS buffer solution (pH 7.4). 100 μl of each gel at varying concentrations were plated on a glass slide. After 30 seconds, 500 μl of a 1% Congo Red solution in PBS buffer (pH 7.4) was added around and on top of each of the gel aliquots and then the excess Congo Red solution was wiped off prior to examination.
# Visualization of gel formation determined the success or failure of gelation at each concentration.
# [4] = Rheological properties at various concentrations (rheometer, stress sweep); conditions: 37° C., 10 rad/s; for Loss Modulus (G')* / Storage Modulus (G')*: at 1 Pa of oscillation stress
# Experimental: The rheological properties of the ST14 (SEQ ID NO:2) were evaluated at various concentrations using a rheometer (AR500, TA Instruments) with 40 mm plates. Peptide solution (700μL) was placed on the rheometer plate and excess solution was gently removed by Kimwipes; measurements were performed after 2 minutes of relaxation time at 37° C. The storage modulus, loss modulus, and viscosity (η′) were measured at 37° C. with the plates placed at a measuring geometry gap of 300 μm, and stress sweep tests were performed at 0.1 Pa˜1000 Pa of oscillation stress with angular frequency at 10 rad/s.
# [5] = Atomic Force Microscopy (AFM) morphological study of peptide nano structures; conditions: 100 μM peptide solution on mica, rinsed, air-dried, tapping mode
# Experimental: Each sample was left on the mica for about 30 seconds (s) and then rinsed with aliquots of 100 μl of Milli-Q (ultrapure) water to remove unattached peptides. The sample on the mica surface was then air-dried for AFM observation. AFM was performed with Asylum-1 MFP-3D AFM System (Asylum Research, Santa Barbara, Calif.) using a tapping mode. The images utilized an Olympus Si tip (AC240FS). The cantilever's free resonance frequency was 70 kHz.
AFM morphology (nano structure) [5],solution consistency ([2]; 5 percent w/v),gel formation ([3]; below 1% peptide),Compound,degradation during autoclave treatment [1],appearance in solution ([2]; 1 percent w/v to 5 percent w/v),solution consistency ([2]; 1 percent w/v to 5 percent w/v),gel formation ([3]; 0.5% peptide),Max. Viscosity (max η') ([4]; Concentration 1),Loss Modulus (G')* ([4]; Concentration 1),Storage Modulus (G')* ([4]; Concentration 1),Max. Viscosity (max η') ([4]; Concentration 1.5),Loss Modulus (G')* ([4]; Concentration 1.5),Storage Modulus (G')* ([4]; Concentration 1.5),Max. Viscosity (max η') ([4]; Concentration 2),Loss Modulus (G')* ([4]; Concentration 2),Storage Modulus (G')* ([4]; Concentration 2),Max. Viscosity (max η') ([4]; Concentration 2.5),Loss Modulus (G')* ([4]; Concentration 2.5),Storage Modulus (G')* ([4]; Concentration 2.5)
–,–,–,"CC(O)C(NC(=O)C(CO)NC(=O)C(NC(=O)C(CO)NC(=O)C(NC(=O)C(CO)NC(=O)C(NC(=O)C(CO)NC(=O)C(NC(=O)C(CO)NC(=O)C(NC(=O)C(CO)NC(=O)C(NC(=O)C(N)CO)C(C)O)C(C)O)C(C)O)C(C)O)C(C)O)C(C)O)C(=O)O (stereo not drawn) [ST14, STSTSTSTSTSTST] (H-STSTSTSTSTSTST-OH; configuration not given here)",did not degrade,translucent,formed thick solutions,did not form a gel,1.2 Pa-s,11.4 Pa,67 Pa,1.5 Pa-s,9.8 Pa,94 Pa,2.0 Pa-s,17.3 Pa,136 Pa,2.2 Pa-s,17.1 Pa,167 Pa
Aggregates,formed a thick solution,did not form a gel,"CC(O)C(N)C(=O)NC(C(=O)NC(C(=O)NC(C(=O)NC(C(=O)NC(C(=O)NC(C(=O)NC(C(=O)NC(C(=O)NC(C(=O)NC(C(=O)NC(C(=O)NC(C(=O)NC(C(=O)O)C(C)O)C(C)O)C(C)O)C(C)O)C(C)O)C(C)O)C(C)O)C(C)O)C(C)O)C(C)O)C(C)O)C(C)O)C(C)O (stereo not drawn) [Peptide T14, TTTTTTTTTTTTTT]",did not degrade,translucent,–,–,–,–,–,–,–,–,–,–,–,–,–,–
